As a reminder, the IC50 is the concentration that gives 50% inhibition.

From US20230322756A1, “FUSED IMIDAZOLE DERIVATIVE, PREPARATION METHOD THEREFOR, AND MEDICAL USE THEREOF” (JIANGSU HENGRUI MEDICINE CO., LTD., priority 2020, published 2023) come the findings set out here.

One data set has as its target hERG potassium channel (Homo sapiens (Human), UniProt Q12809). The data set is described as follows: Blocking effect on hERG potassium currents, manual patch-clamp in CHO cells stably expressing hERG channel. The conditions noted are these: read-out: IC50 for the blocking effect on the hERG potassium ion channel. In kind it is cell-based. An excerpt:
This example is intended to assess the blocking effect of the compounds of the present disclosure and positive compound 1 (see the compound of Example 7 on page 125 of WO2019239319A1) on hERG potassium currents in a stable cell strain transfected with an hERG potassium channel by a manual patch-clamp assay. The structure of positive compound 1 is shown below:
The cells used in this experiment were from a CHO cell line (provided by Sophion Bioscience, Denmark) transfected with hERG cDNA and stably expressing hERG channel at cell passage number of P5. Cells were cultured in a medium containing the following components (all from Invitrogen): Ham's F12 medium, 10% (v/v) inactivated fetal bovine serum, 100 μg/mL hygromycin B, and 100 μg/mL geneticin.
CHO hERG cells were grown in a culture dish containing the above culture medium and cultured in an incubator at 37° C. with 5% CO2. 24-48 h before the electrophysiological experiment, CHO hERG cells were transferred to round slides placed in the culture dish and grown in the same culture medium and culture conditions as above. The density of CHO hERG cells on each round slide was required to achieve the requirement that most cells were independent and individual.
In this experiment, a manual patch-clamp system (HEKA EPC-10 signal amplifier and digital conversion system, purchased from HEKA Electronics, Germany) was used for whole cell current recording. Round slides with CHO hERG cells grown on the surface were placed in an electrophysiological recording chamber under an inverted microscope. The chamber was continuously perfused with extracellular fluid (approximately 1 mL/min). The experimental procedures were performed by conventional whole-cell patch-clamp current recording technology. Unless otherwise stated, the experiment was performed at room temperature ([…]). The cells were clamped at a voltage of −80 mV. The cell clamp voltage was depolarized to +20 mV to activate the hERG potassium channel, and then clamped to −50 mV 5 s later to eliminate inactivation and generate tail currents. The tail current peak was used as a value for the numeral value of the hERG current. After the hERG potassium currents recorded in the above step were stable under the continuous extracellular fluid perfusion in the recording chamber, the drug to be tested could be added for perfusion until the inhibitory effect of the drug on the hERG current reached a stable state. Generally, the last superposition of 3 consecutive current recording lines is used as a criterion for determining whether a stable state is reached. […]
The experimental data were analyzed by data analysis software supplied by HEKA Patchmaster(V2x73.2), Microsoft Excel, and Graphpad Prism 5.0. […]

A further data set addresses CYP1A2 (Homo sapiens (Human), UniProt P05177). The experiment in a line: Inhibition of human liver microsome CYP450 enzyme, CYP1A2 phenacetin site. Format: in vitro ADME. The conditions noted are these: human liver microsomes, probe substrate phenacetin. As for the experimental part:
(§1) I. Materials and Instruments • 1. Phosphate buffered saline (20×PBS, purchased from Sangon); • 2. NADPH (ACROS, A2646-71-1); • 3. Human liver microsome (Corning Gentest, Cat No. 452161, Lot No. 905002, Donor35); • 4. ABI QTrap 4000 LC-MS System (AB Sciex); • 5. ZORBAX Extend-C18, 3×50 mm, 3.5 μm (Agilent, USA); • 6. CYP probe substrate.
(§2) An appropriate amount of human liver microsome stock solution (20 mg/mL) was diluted to obtain a 0.25 mg/mL microsome solution with 7.5 mM MgCl2 solution for later use (prepared right before use).
(§3) b. An appropriate amount of the stock solution was precisely pipetted, and diluted into series solution I at the concentrations of 10 mM, 3 mM, 1 mM, 0.3 mM, 0.03 mM and 0.003 mM with an appropriate amount of DMSO solution. An appropriate amount of the above series solution I was precisely pipetted, and diluted to obtain series solution II at the concentrations of 3 mM, 1 mM, 0.3 mM, 0.1 mM, 0.03 mM, 0.003 mM and 0.0003 mM with an appropriate amount of acetonitrile. An appropriate amount of the above series solution II was precisely pipetted, and diluted with PBS to obtain a working solution at the concentrations of 150 μM, 50 μM, 15 μM, 5 μM, 1.5 μM, 0.15 μM and 0.015 μM for later use.
(§4) 3. Procedures • 1) 40 μL of human liver microsome solution (0.25 mg/mL), 20 μL of probe substrate solution and 20 μL of test compound solution were precisely pipetted into a 96-well plate and pre-incubated for 5 min under a water bath at 37° C. • 2) After 5 min of pre-incubation, the mixture was taken out, 20 μL of 5 mM NADPH solution was added to initiate the reaction, and the resulting mixture was incubated for 30 min under a water bath at 37° C. […]
(§5) The values were calculated by Graphpad Prism to obtain the IC50 values for the inhibition of drugs on CYP1A2 phenacetin, CYP2C19 (S)-mephenytoin and CYP3A4M midazolam sites of metabolism in human liver microsomes, as shown in Table 7.

The target in another data set is CYP2C19 (Homo sapiens (Human), UniProt P33261). The experiment in a line: Inhibition of human liver microsome CYP450 enzyme, CYP2C19 (S)-mephenytoin site. The conditions noted are these: human liver microsomes, probe substrate (S)-mephenytoin. In kind it is in vitro ADME. How it is done:
as §1, §2, §3, §4, §5
For orientation: Liver microsomes are vesicles of endoplasmic reticulum, rich in cytochrome P450 enzymes.

In another data set the target is CYP3A4M (Homo sapiens (Human), UniProt P08684). The data set is described as follows: Inhibition of human liver microsome CYP450 enzyme, CYP3A4M midazolam site. Format: in vitro ADME. The following applies: human liver microsomes, probe substrate midazolam. How it is done:
as §1, §2, §3, §4, §5

Chain of CYP3A4M (P08684 whole entry): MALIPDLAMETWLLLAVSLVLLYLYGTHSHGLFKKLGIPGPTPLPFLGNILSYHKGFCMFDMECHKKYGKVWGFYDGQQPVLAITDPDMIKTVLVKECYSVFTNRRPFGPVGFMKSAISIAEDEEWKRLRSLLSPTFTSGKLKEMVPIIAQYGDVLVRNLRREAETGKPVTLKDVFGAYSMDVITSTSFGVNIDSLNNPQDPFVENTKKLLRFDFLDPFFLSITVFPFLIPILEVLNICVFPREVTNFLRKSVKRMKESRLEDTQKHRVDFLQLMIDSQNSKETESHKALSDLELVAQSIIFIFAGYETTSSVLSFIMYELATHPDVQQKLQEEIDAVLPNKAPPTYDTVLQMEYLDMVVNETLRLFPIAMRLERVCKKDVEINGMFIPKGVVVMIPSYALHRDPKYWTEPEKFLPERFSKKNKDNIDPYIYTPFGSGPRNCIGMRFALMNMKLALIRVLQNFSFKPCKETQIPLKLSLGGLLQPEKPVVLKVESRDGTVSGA
Chain of CYP2C19 (P33261 whole entry): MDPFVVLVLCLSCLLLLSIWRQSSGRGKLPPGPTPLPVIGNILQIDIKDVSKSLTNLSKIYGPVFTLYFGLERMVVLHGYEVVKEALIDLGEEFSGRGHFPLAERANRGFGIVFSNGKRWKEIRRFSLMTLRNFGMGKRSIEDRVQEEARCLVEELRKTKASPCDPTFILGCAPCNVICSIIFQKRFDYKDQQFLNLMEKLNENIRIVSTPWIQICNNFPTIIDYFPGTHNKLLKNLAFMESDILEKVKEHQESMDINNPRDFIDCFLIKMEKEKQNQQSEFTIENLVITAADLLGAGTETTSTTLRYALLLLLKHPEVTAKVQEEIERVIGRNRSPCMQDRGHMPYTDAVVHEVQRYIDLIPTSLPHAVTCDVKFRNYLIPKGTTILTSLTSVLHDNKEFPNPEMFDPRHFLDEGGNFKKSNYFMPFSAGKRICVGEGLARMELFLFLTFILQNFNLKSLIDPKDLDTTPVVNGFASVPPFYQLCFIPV
Chain of hERG potassium channel (Q12809 whole entry): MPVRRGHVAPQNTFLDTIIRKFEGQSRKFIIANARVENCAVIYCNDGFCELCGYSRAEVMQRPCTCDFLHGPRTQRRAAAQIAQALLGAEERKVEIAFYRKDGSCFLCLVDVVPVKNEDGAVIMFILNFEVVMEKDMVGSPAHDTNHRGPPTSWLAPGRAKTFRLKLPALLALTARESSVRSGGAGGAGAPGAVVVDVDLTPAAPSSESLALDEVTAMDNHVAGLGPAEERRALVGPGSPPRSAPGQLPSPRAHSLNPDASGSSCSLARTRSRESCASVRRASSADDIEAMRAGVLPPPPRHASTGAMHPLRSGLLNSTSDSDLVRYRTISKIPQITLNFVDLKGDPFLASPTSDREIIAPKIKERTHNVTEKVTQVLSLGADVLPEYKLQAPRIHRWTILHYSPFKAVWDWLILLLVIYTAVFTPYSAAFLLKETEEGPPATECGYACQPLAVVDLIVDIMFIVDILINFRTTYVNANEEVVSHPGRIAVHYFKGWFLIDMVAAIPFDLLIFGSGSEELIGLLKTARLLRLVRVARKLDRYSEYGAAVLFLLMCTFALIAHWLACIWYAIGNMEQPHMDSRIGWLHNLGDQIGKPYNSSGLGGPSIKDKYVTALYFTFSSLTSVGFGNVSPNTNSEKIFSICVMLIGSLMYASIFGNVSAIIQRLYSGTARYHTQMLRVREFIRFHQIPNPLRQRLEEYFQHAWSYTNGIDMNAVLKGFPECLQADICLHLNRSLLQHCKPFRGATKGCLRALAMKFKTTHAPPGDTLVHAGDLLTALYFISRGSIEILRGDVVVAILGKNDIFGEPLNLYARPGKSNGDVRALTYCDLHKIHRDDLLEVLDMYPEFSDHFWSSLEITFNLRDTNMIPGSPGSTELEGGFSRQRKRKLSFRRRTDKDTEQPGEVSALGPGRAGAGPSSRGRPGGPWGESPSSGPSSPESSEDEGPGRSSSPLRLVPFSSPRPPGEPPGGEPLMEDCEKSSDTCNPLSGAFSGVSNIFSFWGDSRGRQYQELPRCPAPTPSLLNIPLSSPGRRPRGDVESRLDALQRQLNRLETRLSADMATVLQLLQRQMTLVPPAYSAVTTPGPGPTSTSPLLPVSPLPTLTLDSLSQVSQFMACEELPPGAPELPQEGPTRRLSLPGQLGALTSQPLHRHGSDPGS
Chain of CYP1A2 (P05177 whole entry): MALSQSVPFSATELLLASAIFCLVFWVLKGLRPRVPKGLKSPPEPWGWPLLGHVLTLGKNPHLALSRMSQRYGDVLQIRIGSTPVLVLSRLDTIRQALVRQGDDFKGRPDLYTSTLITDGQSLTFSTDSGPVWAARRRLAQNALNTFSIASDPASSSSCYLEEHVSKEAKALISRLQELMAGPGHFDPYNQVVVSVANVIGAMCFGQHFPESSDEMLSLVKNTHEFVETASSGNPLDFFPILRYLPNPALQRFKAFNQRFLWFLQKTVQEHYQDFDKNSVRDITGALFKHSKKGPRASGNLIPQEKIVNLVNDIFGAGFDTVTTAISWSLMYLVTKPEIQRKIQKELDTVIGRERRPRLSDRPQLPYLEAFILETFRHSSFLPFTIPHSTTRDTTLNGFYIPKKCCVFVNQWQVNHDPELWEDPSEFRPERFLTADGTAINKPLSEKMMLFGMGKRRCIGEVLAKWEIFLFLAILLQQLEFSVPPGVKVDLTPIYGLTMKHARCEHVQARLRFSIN

As to `C[C@]1(c2ccc(Cl)cc2F)Oc2cccc(C3CCN(Cc4nc5ccc(C(=O)O)cc5n4C[C@@H]4CCO4)CC3)c2O1` [Positive compound 1, reference compound], the 50% inhibitory concentration (IC50) was 4.6 µM at hERG potassium channel, 12.5 µM at CYP1A2, 7.4 µM against CYP2C19 and 25.5 µM on CYP3A4M.

As for `O=C(O)c1ccc2nc(CN3CCC(c4cccc5c4O[C@@H](c4ccc(Cl)cc4F)CO5)CC3)n(C[C@@H]3CCO3)c2n1` [Example 5, 2-((4-((S)-3-(4-Chloro-2-fluorophenyl)-2,3-dihydrobenzo[b][1,4]dioxan-5-yl)piperidin-1-yl)methyl)-3-((S)-oxetan-2-ylmethyl)-3H-imidazo[4,5-b]pyridine-5-carboxylic acid], the IC50 at hERG potassium channel was 25.9 µM; on CYP1A2 it was over 30 µM; on CYP2C19 it was over 30 µM; against CYP3A4M, over 30 µM.

As for `O=C(O)c1ccc2nc(CN3CCC(c4cccc5c4O[C@@H](c4ccc(Cl)cc4F)CO5)CC3)n(C[C@@H]3CCO3)c2c1` [Example 4, 2-((4-((S)-3-(4-Chloro-2-fluorophenyl)-2,3-dihydrobenzo[b][1,4]dioxan-5-yl)piperidin-1-yl)methyl)-1-(((S)-oxetan-2-yl)methyl)-1H-benzo[d]imidazole-6-carboxylic acid], the IC50 at hERG potassium channel was 10.1 µM; against CYP1A2, over 30 µM; at CYP2C19, over 30 µM; on CYP3A4M it was over 30 µM.
